Laboratory results published in patent US5453441A, “Substituted arginines and substituted homoarginines and use thereof” (Cornell Research Foundation, Inc., priority 1994, dated 1995).

Tests used:
[1] = tested on: inducible form of nitric oxide synthase; assay: Inhibition of nitric oxide synthesis by nitric oxide synthase (inducible form) from cytokine-treated rat aortic smooth muscle cells; assay type: biochemical, adult male Fischer 344 rats
Procedure: Reaction mixtures were made up containing 50 μL of a working solution, 10 μL myoglobin solution (3 mg/ml), 10 μL inhibitor, 20 μL nitric oxide synthase and 10 μL water.
The working mixture was made up to contain 160 mM tris buffer, 200 μM L-arginine, 1 mM NADPH, 20 μM flavin adenine dinucleotide, 20 μM tetrahydrobiopterin in distilled water (pH adjusted to 7.6 by adding 10N NaOH).
The nitric oxide synthase was obtained as follows: Aortic smooth muscle cells were cultured by explanting segments of the medial layer of aortae from adult male Fischer 344 rats. Aortae were removed aseptically and freed of adventitial and endothelial cells by scraping both the lumenal and abluminal surfaces. Medial fragments (1-2 mm) were allowed to attach to dry Primaria 25 cm^2 tissue culture flasks (Falcon; Oxnard, Calif.) which were kept moist with growth medium until cells emerged. Cultures were fed twice weekly with medium 199 containing 10% fetal bovine serum, 25 mM HEPES, 2 mM L-glutamine, 40 μg/ml endothelial cell growth supplement (Biomedical Technologies; Stoughton, Mass.) and 10 μg/ml gentamycin (GIBCO; Grand Island, N.Y.). When primary cultures became confluent, they were passaged by trypsinization. Cells in passage 10-15 were seeded at 20,000/well. […]

pressor response = assay type: in vivo, rat; conditions: phenylephrine 0.1 to 10 μg/kg, angiotensin II 0.01 to 1 μg/kg
Procedure: To establish that nitric oxide overproduction can result in a diminished sensitivity to pressor agents, studies in a rat model of septic hypotension, i.e., the endotoxic-, pithed-rat, are performed.
Animals are either untreated (control) or treated with endotoxin (lipopolysaccharide-treated; 15 mg/kg, i.p.) 6 hours prior to their being pithed and instrumented for blood pressure recording. Prior to pithing, mean systematic arterial pressure in control rats is about 120 mm Hg. Pressure falls about 50% after pithing of control animals and is reduced to about 25% of normal in pithed endotoxin-treated animals.
Responsiveness is restored to more than 50% of the responsiveness seen in pithed control rats.

Compound | effectiveness relative to the commercial compound (N^ω -methyl-DL-arginine), based on the concentration necessary to inhibit 50% [1] | pressor effect in pithed control rats (pressor response) | pressor effect in pithed endotoxic rats (pressor response)
CC(N)(CCCNC(=N)NN)C(=O)O (racemic) [α-methyl-N^ω -amino-DL-arginine, α-Methyl-N^ω -Amino-DL-Arginine] | about twice as effective as the commercial compound |  | 
angiotensin II: listed among suitable α1 -adrenergic agonists; pressor agent (DRVYIHPF; Angiotensin-2; UniProt P01019 25-32, looked up) |  | strong pressor effect | negligible effect
CNC[C@H](O)c1cccc(O)c1 [phenylephrine] |  | strong pressor effect | negligible effect
